Results as given in US7919620B2, “Agent for suppressing blood pressure elevation” (Coral Biotech Kabushiki Kaisha, priority 2005, dated 2011).
Marks after values point to notes of the source that are not given here.

Assays:
Format in all cases: in vivo, rat
[1] = tested on: spontaneously hypertensive rats (SHRs); experiment: Animal Experiment 1 (Example 1): systolic pressure of SHRs given sea water- or Si-added feed; conditions: for Systolic pressure of SHRs: mean ± SD
Source text: In the following examples, spontaneously hypertensive rats (SHRs) were used as experimental animals. The antihypertensive effect of deep sea water was examined by comparison with tap water and surface sea water. […] The samples of the sea water used in the examples were collected by the Deep Seawater Laboratory of Okinawa at a point 3 kilometers off the coast of Kumejima island at depths of 612 m (deep sea water) and 15 m (surface sea water).
(§1) Seven-week-old male SHRs were divided into 5 groups of 6 to 7 animals. Following 1 week of acclimatization, each group was allowed to feed freely on semi-solid feed for 7 to 8 weeks. The feed given was prepared by adding 40 wt % moisture to powdered feed. To ensure that each SHR would develop hypertension, 1 wt % salt was added to the feed. The animals were allowed to freely drink tap water. Over the course of the test period, each animal was weighed and the feed consumption was measured. Blood pressure was taken from the tail vein every four days between 4 PM and 6 PM. After a 12-hour fasting period, the animals were sacrificed. Serum, liver, and kidney were weighed and subjected to analyses.
(§2) The sea water added was NaCl-removed deep sea water (DW) or NaCl-removed surface sea water (SW) prepared by dialyzation through an electrodialyzer (Asahi Kasei) until the conductivity of monovalent ions was decreased to 10 mS/cm.
(§3) The Si concentration in the semi-solid feed containing 40% moisture is defined as the amount of Si contained in 1 kg of the feed.

[2] = Animal Experiment 1 (Example 1): NaCl, water and feed consumption and body weight of SHRs
Procedure: as §1, §2, §3

[3] = tested on: spontaneously hypertensive rats (SHRs); experiment: Animal Experiment 2 (Example 2): systolic pressure of SHRs given sea water- or Si-added feed; conditions: for Systolic pressure of SHRs: mean ± SD
Procedure: (§4) Twenty-five 7-week-old male SHRs were divided into 5 groups of 5 animals. Four times as much Si as used in Example 1 was added to the feed given to the rats. Otherwise, the animals were tested under the same conditions as in Example 1. Two types of sea water were added to the powder feed: sea water subjected to NaCl-removing treatment by electrical dialysis and ion-exchanged water. The semi-solid feed containing 1.4 wt % NaCl and 40% moisture was prepared by adding the sea water to powdered feed.

[4] = Animal Experiment 2 (Example 2): NaCl, water and feed consumption and body weight of SHRs
Procedure: as §4

SMILES: O.O.O.O.O.O.O.O.O.O=[Si]([O-])[O-].[Na+].[Na+] [Si, sodium metasilicate nonahydrate]
- Systolic pressure of SHRs ([1]; age 7 W): 151.4 ± 9.8 mmHg
- Systolic pressure of SHRs ([1]; age 8 W): 163.6 ± 7.7 mmHg
- Systolic pressure of SHRs ([1]; age 9 W): 165.1 ± 9.2 mmHg
- Systolic pressure of SHRs ([1]; age 10 W): 173.7 ± 12.2 mmHg
- Systolic pressure of SHRs ([1]; age 11 W): 184.4 ± 11.2 mmHg
- Systolic pressure of SHRs ([1]; age 12 W): 188.4 ± 10.7 mmHg
- Systolic pressure of SHRs ([1]; age 13 W): 194.1 ± 10.4 mmHg
- Systolic pressure of SHRs ([1]; age 14 W): 193.8 ± 11.3*^1 mmHg
- Difference in magnitude of blood pressure elevation vs control group ([1]; age 14 weeks (week 6 of treatment), p<0.05): about 15 mmHg
- Systolic pressure of SHRs ([1]; age 15 W): 195.2 ± 9.8*^2 mmHg
- Antihypertensive effect (blood pressure suppression vs control) ([1]; end of test period (15 weeks old)): approximately 23 mmHg
- Body weight ([2]; 8 weeks): 185.0 ± 12.2 g
- Body weight, % of Control ([2]; 8 weeks): [98.2%]
- Body weight ([2]; 15 weeks): 287.7 ± 14.7 g
- Body weight, % of Control ([2]; 15 weeks): [95.7%]
- Systolic pressure of SHRs ([3]; age 7 W): 157 ± 8 mmHg
- Systolic pressure of SHRs ([3]; age 8 W): 166 ± 12 mmHg
- Systolic pressure of SHRs ([3]; age 9 W): 168 ± 4 mmHg
- Systolic pressure of SHRs ([3]; age 10 W): 167 ± 7 mmHg
- Systolic pressure of SHRs ([3]; age 11 W): 172 ± 7 mmHg
- Systolic pressure of SHRs ([3]; age 12 W): 179 ± 4 mmHg
- Systolic pressure of SHRs ([3]; age 13 W): 179 ± 1*^1 mmHg
- Systolic pressure of SHRs ([3]; age 14 W): 181 ± 3*^1 mmHg
- Antihypertensive effect (difference in systolic pressure from the control) ([3]; end of test period (14 weeks old), p<0.05): approximately 10 mmHg
- Body weight ([4]; 8 week): 200.3 ± 15.3 g
- Body weight, % of Control ([4]; 8 week): [97.6%]
- Body weight ([4]; 14 week): 303.4 ± 22.6 g
- Body weight, % of Control ([4]; 14 week): [102.4%]
